In patent US8193362B2 (Syngenta Crop Protection LLC, priority 2008, dated 2012) one finds pest or weed control data, which are given here for five compounds.

Type in all cases: in vivo
Assay [1] has as its system Spodoptera littoralis (Egyptian Cotton Leafworm). Briefly: Spodoptera littoralis cotton leaf disc spray test. Particulars: foliar, 72 h, 200 ppm spray on cotton leaf discs, L1 larvae, mortality, feeding behavior, growth regulation 3 DAT. An excerpt:
Spodoptera littoralis (Egyptian Cotton Leafworm)
Cotton leaf discs were placed on agar in a 24-well microtiter plate and sprayed with test solutions at an application rate of 200 ppm. After drying, the leaf discs were infested with 5 L1 larvae. The samples were checked for mortality, feeding behavior, and growth regulation 3 days after treatment (DAT).

In assay [2] the test system is Heliothis virescens (Tobacco Budworm). Briefly: Heliothis virescens egg test on artificial diet in 24-well microtiter plate. The settings on record: 96 h, 200 ppm (concentration in well 18 ppm), eggs 0-24 h old, 4 days, egg mortality, larval mortality, growth regulation. As to the method: (§1) Heliothis virescens (Tobacco Budworm):
Eggs (0-24 h old) were placed in 24-well microtiter plate on artificial diet and treated with test solutions at an application rate of 200 ppm (concentration in well 18 ppm) by pipetting. After an incubation period of 4 days, samples were checked for egg mortality, larval mortality and growth regulation.

The test system of assay [3] is Plutella xylostella (Diamond Back Moth). Nature of the assay: Plutella xylostella L2 larvae test on artificial diet in 24-well microtiter plate. The settings on record: 144 h, 200 ppm (concentration in well 18 ppm), 6 days, larval mortality, growth regulation. As to the method: Plutella xylostella (Diamond Back Moth):
A 24-well microtiter plate (MTP) with artificial diet was treated with test solutions at an application rate of 200 ppm (concentration in well 18 ppm) by pipetting. After drying, the MTP's were infested with L2 larvae (7-12 per well). After an incubation period of 6 days, samples were checked for larval mortality and growth regulation.

For assay [4], the system named is Diabrotica balteata (Corn Root Worm). Nature of the assay: Diabrotica balteata L2 larvae test on artificial diet in 24-well microtiter plate. The settings on record: 120 h, 200 ppm (concentration in well 18 ppm), 5 days, larval mortality, growth regulation. As to the method:
Diabrotica balteata (Corn Root Worm):
A 24-well microtiter plate (MTP) with artificial diet was treated with test solutions at an application rate of 200 ppm (concentration in well 18 ppm) by pipetting. After drying, the MTP's were infested with larvae (L2) (6-10 per well). After an incubation period of 5 days, samples were checked for larval mortality, and growth regulation.

Assay [5] has as its system Heliothis virescens (Tobacco Budworm). Briefly: Comparative Heliothis virescens egg test in petri dishes on artificial diet. The settings on record: 144 h, 6 days incubation, read-out: percentage of dead larvae; for pest or weed control at 0.8 ppm: concentration 0.8 ppm; for pest or weed control at 1.5 ppm: concentration 1.5 ppm; for pest or weed control at 3 ppm: concentration 3 ppm; for pest or weed control at 6 ppm: concentration 6 ppm. The method, then: This Example illustrates the pesticidal/insecticidal properties of compounds of formula (I) compared to Comparative Compound A and Comparative Compound B. Comparative Compound A and Comparative Compound B were disclosed in WO 2006/003494.
as §1
Fresh eggs (0-24 h old) on filterpaper were placed in petri dishes on top of a layer of artificial diet and treated with diluted test solutions by pipetting. After an incubation period of 6 days, samples were checked for larval mortality and growth regulation. The percentage of dead larvae was assessed.

Regarding `O=C(Nc1cc(Cl)c(Br)nc1C1CCN(C/C=C/c2ccc(Cl)cc2)CC1)c1ccnc(Cl)c1` [Compound E7, N-{6-bromo-1′-[(E)-3-(4-chloro-phenyl)-allyl]-5-chloro-1′,2′,3′,4′,5′,6′-hexahydro-[2,4′]bipyridinyl-3-yl}-2-chloro-isonicotinamide], the pest or weed control at 200 ppm in assay [1], in assay [2], in assay [3] and in assay [4] was no less than 80% in each case. The pest or weed control at 0.8 ppm in assay [5] was 100%. In addition, in assay [5], the pest or weed control at 1.5 ppm was 100%. For the same compound, in assay [5], the pest or weed control at 3 ppm amounted to 100%. Also, the pest or weed control at 6 ppm in assay [5] is 100%.
`O=C(Nc1cc(C(F)(F)F)c(Br)nc1C1CCN(C/C=C/c2ccc(Cl)cc2)CC1)c1ccnc(Cl)c1` [Compound G1, 2-chloro-N-{6-bromo-1′-[(E)-3-(4-chloro-phenyl)-allyl]-5-trifluoromethyl-1′,2′,3′,4′,5′,6′-hexahydro-[2,4′]bipyridinyl-3-yl}-isonicotinamide] gave a pest or weed control at 200 ppm in assay [1] of no less than 80%. This compound also displayed a pest or weed control at 200 ppm in assay [2] of no less than 80%. In assay [3], this compound registered a pest or weed control at 200 ppm of no less than 80%. For the same compound, the pest or weed control at 200 ppm in assay [4] is no less than 80%. In addition, in assay [5], the pest or weed control at 0.8 ppm came to 100%, the pest or weed control at 1.5 ppm stood at 100%, the pest or weed control at 3 ppm was found to be 100% and the pest or weed control at 6 ppm was 100%.
`O=C(Nc1cc(F)c(Cl)nc1C1CCN(C/C=C/c2ccc(Cl)cc2)CC1)c1ccnc(Cl)c1` [Compound B1, 2-chloro-N-{6-chloro-1′-[(E)-3-(4-chloro-phenyl)-allyl]-5-fluoro-1′,2′,3′,4′,5′,6′-hexahydro-[2,4′]bipyridinyl-3-yl}-isonicotinamide]: the pest or weed control at 200 ppm in assay [1] is no less than 80%. The pest or weed control at 200 ppm in assay [2] was no less than 80%. In assay [3], this compound came in with a pest or weed control at 200 ppm of no less than 80%. The pest or weed control at 200 ppm in assay [4] is no less than 80%. For the same compound, in assay [5], the pest or weed control at 0.8 ppm was determined as 80%, the pest or weed control at 1.5 ppm is 100%, the pest or weed control at 3 ppm worked out at 100% and the pest or weed control at 6 ppm came to 100%.
In assay [1], `O=C(Nc1cc(F)c(Br)nc1C1CCN(C/C=C/c2ccc(Cl)cc2)CC1)c1ccnc(Cl)c1` [Compound D3, N-{6-bromo-1′-[(E)-3-(4-chloro-phenyl)-allyl]-5-fluoro-1′,2′,3′,4′,5′,6′-hexahydro-[2,4]bipyridinyl-3-yl}-2-chloro-isonicotinamide] gave a pest or weed control at 200 ppm of no less than 80%. The same compound registered a pest or weed control at 200 ppm in assay [2] of no less than 80%. The compound further yielded a pest or weed control at 200 ppm in assay [3] of no less than 80%. Further, the pest or weed control at 200 ppm in assay [4] was no less than 80%. For the same compound, in assay [5], the pest or weed control at 0.8 ppm is 100%, the pest or weed control at 1.5 ppm was found to be 100%, the pest or weed control at 3 ppm was found to be 100% and the pest or weed control at 6 ppm was determined as 100%.
For `O=C(Nc1cc(C(F)(F)F)c(Cl)nc1C1CCN(C/C=C/c2ccc(Cl)cc2)CC1)c1ccnc(Cl)c1` [Compound F2, 2-chloro-N-{6-chloro-1′-[(E)-3-(4-chloro-phenyl)-allyl]-5-trifluoromethyl-1′,2′,3′,4′,5′,6′-hexahydro-[2,4′]bipyridinyl-3-yl}-isonicotinamide], the pest or weed control at 200 ppm in assay [1] was no less than 80%. In assay [2], this compound had a pest or weed control at 200 ppm of no less than 80%. In assay [3], this compound returned a pest or weed control at 200 ppm of no less than 80%. In assay [4], this compound showed a pest or weed control at 200 ppm of no less than 80%. In addition, in assay [5], the pest or weed control at 0.8 ppm turned out to be 100%, the pest or weed control at 1.5 ppm stood at 100%, the pest or weed control at 3 ppm amounted to 100% and the pest or weed control at 6 ppm is 100%.
